Data published in patent US8741644B2, “Method for producing mast cells from pluripotent stem cells” (Kyoto University, priority 2009, dated 2014).
Where no end group is shown, it is not given here.

Tested on: hESC-MCs
Assay: Activation of MCs: histamine release from hESC-MCs upon stimulation (ELISA histamine kit)
Format: cell-based, human
Details: hESC (H1)-derived mast cells, 15 min at 37° C., FIG. 13
Description: For stimulation, substance P (Sigma), compound 48/80 or control medium was added to a 25 μl cell suspension (4×10^5 MCs/ml) in 96-well plates, and incubated for further 15 min at 37° C. The reaction was stopped by adding 200 μl ice-cold buffer. The cells were separated by centrifugation at 300×g for 7 min at 4° C., and the supernatant was collected. The cell pellet was resuspended in […] containing 0.5% Triton-X and 0.1% bovine serum albumin (BSA), quick frozen in liquid nitrogen and thawed 4 times. After centrifugation at 12,000×g for 15 min at 4° C., the soluble extract was collected. Histamine levels were measured by an ELISA histamine kit (Beckman Coulter)

substance P (RPKPQQFFGLM; ends and bridges not checked; UniProt P20366 58-68, looked up) [neuropeptide used as mast cell stimulant (Sigma)]
degranulation to release histamine: dose-dependent degranulation
